This note sets out measurements from ChEMBL document CHEMBL5154841, “Optimization of NAMPT activators to achieve in vivo neuroprotective efficacy” (Eur J Med Chem, 2022).

Molecules are shown by their SMILES.

Data set [1] can be described thus: Half life in CD-1 mouse at 1 mg/kg, iv measured after 24 hrs by LC-MS/MS analysis. Format: ADME, organism-based. As to conditions: in vivo.
Data set [2] is described as follows: Half life in CD-1 mouse at 30 mg/kg, ip measured after 24 hrs by LC-MS/MS analysis. Format: ADME, organism-based. As to conditions: in vivo.
Data set [3] in a line: Half life in CD-1 mouse at 30 mg/kg, po measured after 24 hrs by LC-MS/MS analysis. As to conditions: in vivo. Format: ADME, organism-based.
Data set [4] in a line: Tmax in CD-1 mouse at 30 mg/kg, ip measured after 24 hrs by LC-MS/MS analysis. Format: ADME, organism-based. As to conditions: in vivo.
The nature of data set [5]: Tmax in CD-1 mouse at 30 mg/kg, po measured after 24 hrs by LC-MS/MS analysis. Format: ADME, organism-based. As to conditions: in vivo.
Data set [6] can be described thus: Cmax in CD-1 mouse at 30 mg/kg, ip measured after 24 hrs by LC-MS/MS analysis. Format: ADME, organism-based. Also on record: time 24 hrs, dose 30 mg/kg, route ip. As to conditions: in vivo.
Data set [7] can be described thus: Cmax in CD-1 mouse at 30 mg/kg, po measured after 24 hrs by LC-MS/MS analysis. As to conditions: in vivo. Format: ADME, organism-based. Also on record: dose 30 mg/kg, time 24 hrs, route po.
The nature of data set [8]: AUClast in CD-1 mouse at 1 mg/kg, iv measured after 24 hrs by LC-MS/MS analysis. Format: ADME, organism-based. Also on record: dose 1 mg/kg, time 24 hrs, route iv. As to conditions: in vivo.
Data set [9] in a line: AUClast in CD-1 mouse at 30 mg/kg, ip measured after 24 hrs by LC-MS/MS analysis. Format: ADME, organism-based. Also noted: dose 30 mg/kg, time 24 hrs, route ip. As to conditions: in vivo.
Data set [10] in a line: AUClast in CD-1 mouse at 30 mg/kg, po measured after 24 hrs by LC-MS/MS analysis. Format: ADME, organism-based. As to conditions: in vivo. Also noted: dose 30 mg/kg, time 24 hrs, route po.
Data set [11] can be described thus: AUCinfinity in CD-1 mouse at 1 mg/kg, iv measured after 24 hrs by LC-MS/MS analysis. Format: ADME, organism-based. Also on record: time 24 hrs, dose 1 mg/kg, route iv. As to conditions: in vivo.
Data set [12] can be described thus: AUCinfinity in CD-1 mouse at 30 mg/kg, ip measured after 24 hrs by LC-MS/MS analysis. Format: ADME, organism-based. Also noted: dose 30 mg/kg, time 24 hrs, route ip. As to conditions: in vivo.
A short description of data set [13]: AUCinfinity in CD-1 mouse at 30 mg/kg, po measured after 24 hrs by LC-MS/MS analysis. Format: ADME, organism-based. As to conditions: in vivo. Also on record: dose 30 mg/kg, time 24 hrs, route po.
Data set [14] can be described thus: Clearance in CD-1 mouse at 1 mg/kg, iv measured after 24 hrs by LC-MS/MS analysis. Format: ADME, organism-based. As to conditions: in vivo.
The nature of data set [15]: Volume of distribution at steady state in CD-1 mouse at 1 mg/kg, iv measured after 24 hrs by LC-MS/MS analysis. Format: ADME, organism-based. As to conditions: in vivo, read-out: Vdss.
A short description of data set [16]: Bioavailability in CD-1 mouse at 30 mg/kg, ip measured after 24 hrs by LC-MS/MS analysis. Format: ADME, organism-based. As to conditions: in vivo.
Data set [17] can be described thus: Oral bioavailability in CD-1 mouse at 30 mg/kg measured after 24 hrs by LC-MS/MS analysis. Format: ADME, organism-based. As to conditions: in vivo.
The nature of data set [18]: Cytoprotective activity against FK866- induced cell death in human U2OS cells assessed as increase in viable cells by measuring relative AUC at 10 uM incubated for […] by fluorometric analysis relative to NAT. Format: functional.
In another data set the test system is U2OS. The data set is described as follows: Cytotoxicity against human U2OS cells assessed as effect on cell viability up to 10 uM measured after 72 hrs by Celltiter-glo luminescent cell viability assay. Format: toxicity, cell-based. (In general: Cellular ATP, detected with luciferase, serves as a proxy for viable cell number.)
For the next data set, the system named is T98G. Kind of data set: Cytotoxicity against human T98G cells assessed as effect on cell viability up to 10 uM measured after 72 hrs by Celltiter-glo luminescent cell viability assay. Format: toxicity, cell-based.
A further data set concerns SH-SY5Y. The data set is described as follows: Cytotoxicity against human SH-SY5Y cells assessed as effect on cell viability up to 10 uM measured after 72 hrs by Celltiter-glo luminescent cell viability assay. Format: toxicity, cell-based.
Another data set concerns HepG2. The data set is described as follows: Cytotoxicity against human HepG2 cells assessed as effect on cell viability up to 10 uM measured after 72 hrs by Celltiter-glo luminescent cell viability assay. Format: toxicity, cell-based. As to conditions: hepg2, 72 h.
Data set [19] can be described thus: Toxicity in C57BL/6J mouse assessed as body weight loss at 1 to 3 mg/kg, iv qd administered for 2 weeks and measured every day. As to conditions: in vivo, 336 h, dose 1-3 mg/kg. Format: organism-based.

For `CC(C)(C)c1ccccc1OCC(=O)Nc1ccc(O)cc1`, the half-life (usually the time needed for the level to fall by half in the phase considered) was 17.4 min in [1], 180 min in data set [2] and 178 min in data set [3]. The values for the Tmax in [4] and in [5] were 19.8 min and 15 min, respectively. The Cmax (usually the peak of the concentration-time curve) was 1520 ng/mL in data set [6] and 1620 ng/mL in data set [7]. The AUC(0-t) (commonly the area under the concentration-time curve up to a stated or last time point) at 24 h in data set [8] came out at 212 ng·h/mL; in [9] it was 2510 ng·h/mL; in [10] it was 2120 ng·h/mL. For the same molecule, the figures for the AUC(0-inf) in [11], in data set [12] and in data set [13] were 214 ng·h/mL, 2520 ng·h/mL and 2130 ng·h/mL, respectively. Further, the clearance (in general, the volume of plasma or blood freed of the substance per unit of time) in [14] was 78.8 mL/min/kg. Moreover, the Vd in data set [15] turned out to be 1.3 L/kg. Moreover, the bioavailability (in general, the share of a dose that reaches the circulation, judged against a reference dose that is usually intravenous) stood at 39.2% in data set [16] and 33.2% in data set [17].

Regarding `CC(C)(C)c1cc(Br)ccc1OCC(=O)Nc1ccc(O)cc1`, the Activity in data set [18] amounted to 40%.

On to `CC(C)(C)c1cc(Cl)c(F)cc1OCC(=O)Nc1ccc(O)cc1`, for which the Activity in [18] is given as 40%.

As for `CC(C)(C)c1ccc(C#N)cc1OCC(=O)Nc1ccc(O)cc1`, the Activity in data set [18] was determined as 206%.

Regarding `CC(C)(C)c1cc(C#N)ccc1OCC(=O)Nc1ccc(O)cc1`, the Activity in [18] was 126%.

For `CC(C)(C)c1cccc(F)c1OCC(=O)Nc1ccc(O)cc1`, the Activity in data set [18] amounted to 235%.

`CC(C)(C)c1cccc(C#N)c1OCC(=O)Nc1ccc(O)cc1`: the Activity entry (in the data set with U2OS; with T98G; in the data set with SH-SY5Y; in the data set with HepG2; in data set [19]) was “Non-Toxic” in each case. The results for the half-life in [1], in data set [2] and in data set [3] were 10.8 min, 63 min and 80.4 min, respectively. Further, the Tmax in [4] and in [5] was 15 min throughout. In addition, the Cmax in data set [6] worked out at 1560 ng/mL; in [7], 188 ng/mL. The AUC(0-t) at 24 h in data set [8] was 183 ng·h/mL; in data set [9], 1330 ng·h/mL; in [10], 388 ng·h/mL. For the same molecule, the AUC(0-inf) (commonly the area under the concentration-time curve extrapolated to infinity) was determined as 185 ng·h/mL in data set [11], 1340 ng·h/mL in data set [12] and 395 ng·h/mL in [13]. In data set [14], this molecule showed a clearance of 90.4 mL/min/kg. Moreover, in [15], the Vd was found to be 1.13 L/kg. For the same molecule, the bioavailability turned out to be 24.2% in data set [16] and 7.05% in [17].

On to `CC(C)(C)c1cc(Cl)ccc1OCC(=O)Nc1ccc(O)cc1`, for which, in data set [18], the Activity worked out at 32%.

For `CC(C)(C)c1ccc(F)cc1OCC(=O)Nc1ccc(O)cc1`, the Activity in data set [18] came to 171%.

As for `O=C(COc1ccccc1)Nc1ccc(O)cc1`, in [18], the Activity amounted to 10%.

Turning to `COc1ccc(OCC(=O)Nc2ccc(O)cc2)c(C(C)(C)C)c1`, the Activity in data set [18] stood at 138%.

Take `CC(C)(C)c1cc(O)ccc1OCC(=O)Nc1ccc(O)cc1`: the Activity in data set [18] was determined as 149%.

For `COC(=O)c1ccc(OCC(=O)Nc2ccc(O)cc2)c(C(C)(C)C)c1`, in data set [18], the Activity was found to be 133%.
